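96-well plates; 48 h exposure; 5 concentrations. Endpoints by linear interpolation between flanking doses. Not reached: highest tested concentration assigned. GI50 marks 50% less growth.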 The source made the active and inactive calls. No stated cut-off is given here; in the data, active = GI50 up to about 1.1 µM and inactive = higher.
Columns and labels:
Experiment in all cases: DTP human tumour cell line panel, 48 h
EKVX = tested on: EKVX
SF-268 = tested on: SF-268
UO-31 = tested on: UO-31
CCRF-CEM = tested on: CCRF-CEM
NCI-H23 = tested on: NCI-H23
OVCAR-5 = tested on: OVCAR-5
SF-539 = tested on: SF-539
T47D = tested on: T47D
HOP-92 = tested on: HOP-92
IGROV-1 = tested on: IGROV-1
LOX IMVI = tested on: LOX IMVI
NCI-H226 = tested on: NCI-H226
786-0 = tested on: 786-0
SR = tested on: SR
KM12 = tested on: KM12
SK-MEL-5 = tested on: SK-MEL-5
NCI/ADR-RES = tested on: NCI/ADR-RES
BT-549 = tested on: BT-549
A549 = tested on: A549
ACHN = tested on: ACHN
SW-620 = tested on: SW-620
RXF 393 = tested on: RXF 393
HOP-62 = tested on: HOP-62
M14 = tested on: M14
A498 = tested on: A498
K562 = tested on: K562
Hs-578T = tested on: Hs-578T
CAKI-1 = tested on: CAKI-1
UACC-257 = tested on: UACC-257
OVCAR-8 = tested on: OVCAR-8
SK-OV-3 = tested on: SK-OV-3
SK-MEL-28 = tested on: SK-MEL-28
MDA-MB-231 = tested on: MDA-MB-231
Malme-3M = tested on: Malme-3M
COLO 205 = tested on: COLO 205
PC-3 = tested on: PC-3
MDA-MB-435 = tested on: MDA-MB-435
SNB-75 = tested on: SNB-75
U-251 = tested on: U-251
NCI-H460 = tested on: NCI-H460
OVCAR-3 = tested on: OVCAR-3
UACC-62 = tested on: UACC-62
MCF7 = tested on: MCF7
SK-MEL-2 = tested on: SK-MEL-2
RPMI-8226 = tested on: RPMI-8226
MOLT-4 = tested on: MOLT-4
SF-295 = tested on: SF-295
NCI-H522 = tested on: NCI-H522
TK-10 = tested on: TK-10
HCT-116 = tested on: HCT-116
DU-145 = tested on: DU-145
OVCAR-4 = tested on: OVCAR-4
HL-60 = tested on: HL-60
SNB-19 = tested on: SNB-19
HCT-15 = tested on: HCT-15
HT-29 = tested on: HT-29
SN12C = tested on: SN12C
MDA-N = tested on: MDA-N
HCC 2998 = tested on: HCC 2998

With `CC(C)c1cc2c(cc1S(=O)(=O)O)[C@@]1(C)CCC[C@@](C)(C(=O)O)C1CC2` (stereo partly drawn) the GI50 (EKVX) was > 100 µM (inactive), the GI50 (SF-268) was > 100 µM (inactive) and the GI50 (UO-31) was > 100 µM (inactive). For the same molecule, the GI50 (CCRF-CEM) was > 100 µM (inactive), the GI50 (NCI-H23) was > 100 µM (inactive) and the GI50 (OVCAR-5) was > 100 µM (inactive). For the same molecule, the GI50 (SF-539) was > 100 µM (inactive), the GI50 (T47D) was > 100 µM (inactive) and the GI50 (HOP-92) was > 100 µM (inactive). The GI50 (IGROV-1) was > 100 µM (inactive), the GI50 (LOX IMVI) was > 100 µM (inactive) and the GI50 (NCI-H226) was > 100 µM (inactive). The GI50 (786-0) was > 100 µM (inactive), the GI50 (SR) was > 100 µM (inactive) and the GI50 (KM12) was > 100 µM (inactive). For the same molecule, the GI50 (SK-MEL-5) was > 100 µM (inactive), the GI50 (NCI/ADR-RES) was > 100 µM (inactive) and the GI50 (BT-549) was > 100 µM (inactive). For the same molecule, the GI50 (A549) was > 100 µM (inactive), the GI50 (ACHN) was > 100 µM (inactive) and the GI50 (SW-620) was > 100 µM (inactive). For the same molecule, the GI50 (RXF 393) was > 100 µM (inactive), the GI50 (HOP-62) was > 100 µM (inactive) and the GI50 (M14) was > 100 µM (inactive). The GI50 (A498) was > 100 µM (inactive), the GI50 (K562) was > 100 µM (inactive) and the GI50 (Hs-578T) was > 100 µM (inactive). For the same molecule, the GI50 (CAKI-1) was > 100 µM (inactive), the GI50 (UACC-257) was > 100 µM (inactive) and the GI50 (OVCAR-8) was > 100 µM (inactive). The GI50 (SK-OV-3) was > 100 µM (inactive), the GI50 (SK-MEL-28) was > 100 µM (inactive) and the GI50 (MDA-MB-231) was > 100 µM (inactive). For the same molecule, the GI50 (Malme-3M) was > 100 µM (inactive), the GI50 (COLO 205) was > 100 µM (inactive) and the GI50 (PC-3) was > 100 µM (inactive). The GI50 (MDA-MB-435) was > 100 µM (inactive), the GI50 (SNB-75) was > 100 µM (inactive) and the GI50 (U-251) was > 100 µM (inactive). The GI50 (NCI-H460) was > 100 µM (inactive), the GI50 (OVCAR-3) was > 100 µM (inactive) and the GI50 (UACC-62) was > 100 µM (inactive). For the same molecule, the GI50 (MCF7) was > 100 µM (inactive), the GI50 (SK-MEL-2) was > 100 µM (inactive) and the GI50 (RPMI-8226) was > 100 µM (inactive). The GI50 (MOLT-4) was > 100 µM (inactive), the GI50 (SF-295) was > 100 µM (inactive) and the GI50 (NCI-H522) was > 100 µM (inactive). The GI50 (TK-10) was > 100 µM (inactive), the GI50 (HCT-116) was > 100 µM (inactive) and the GI50 (DU-145) was > 100 µM (inactive). The GI50 (OVCAR-4) was > 100 µM (inactive), the GI50 (HL-60) was > 100 µM (inactive) and the GI50 (SNB-19) was > 100 µM (inactive). The GI50 (HCT-15) was over 100 µM, the GI50 (HT-29) was > 100 µM (inactive) and the GI50 (SN12C) was > 100 µM (inactive). The GI50 (MDA-N) was > 100 µM (inactive) and the GI50 (HCC 2998) was > 100 µM (inactive).

With `Clc1ccc(COc2ccccc2/C=N/c2c(-c3ccco3)nc3ccccn23)c(Cl)c1` the GI50 (EKVX) was 17.4 µM (inactive), the GI50 (SF-268) was 39.3 µM (inactive) and the GI50 (UO-31) was 39.3 µM (inactive). The GI50 (CCRF-CEM) was 12.9 µM (inactive), the GI50 (NCI-H23) was 32.3 µM (inactive) and the GI50 (OVCAR-5) was > 100 µM (inactive). The GI50 (SF-539) was 21.1 µM (inactive), the GI50 (T47D) was 24.7 µM (inactive) and the GI50 (HOP-92) was 13 µM (inactive). For the same molecule, the GI50 (IGROV-1) was 25.2 µM (inactive), the GI50 (LOX IMVI) was 17.1 µM (inactive) and the GI50 (NCI-H226) was 25.7 µM (inactive). For the same molecule, the GI50 (786-0) was 28.2 µM (inactive), the GI50 (SR) was 10.2 µM (inactive) and the GI50 (KM12) was 36.8 µM (inactive). For the same molecule, the GI50 (SK-MEL-5) was 15.8 µM (inactive), the GI50 (NCI/ADR-RES) was 30.6 µM (inactive) and the GI50 (BT-549) was 30 µM (inactive). For the same molecule, the GI50 (A549) was > 100 µM (inactive), the GI50 (ACHN) was > 100 µM (inactive) and the GI50 (SW-620) was 26.2 µM (inactive). The GI50 (RXF 393) was 20.9 µM (inactive), the GI50 (HOP-62) was 32.9 µM (inactive) and the GI50 (M14) was 26.1 µM (inactive). The GI50 (A498) was > 100 µM (inactive), the GI50 (K562) was 28.4 µM (inactive) and the GI50 (Hs-578T) was 36.9 µM (inactive). For the same molecule, the GI50 (CAKI-1) was 32.5 µM (inactive), the GI50 (UACC-257) was 39.1 µM (inactive) and the GI50 (OVCAR-8) was 26.5 µM (inactive). The GI50 (SK-OV-3) was > 100 µM (inactive), the GI50 (SK-MEL-28) was 66.4 µM (inactive) and the GI50 (MDA-MB-231) was 20.2 µM (inactive). For the same molecule, the GI50 (Malme-3M) was 36.5 µM (inactive), the GI50 (COLO 205) was 38.9 µM (inactive) and the GI50 (PC-3) was 39.8 µM (inactive). The GI50 (MDA-MB-435) was 14.5 µM (inactive), the GI50 (SNB-75) was 23.4 µM (inactive) and the GI50 (U-251) was 33.7 µM (inactive). The GI50 (NCI-H460) was 71 µM (inactive), the GI50 (OVCAR-3) was 37.8 µM (inactive) and the GI50 (UACC-62) was 33.3 µM (inactive). For the same molecule, the GI50 (MCF7) was 12.5 µM (inactive), the GI50 (SK-MEL-2) was 20.2 µM (inactive) and the GI50 (RPMI-8226) was 29.9 µM (inactive). For the same molecule, the GI50 (MOLT-4) was 31.9 µM (inactive), the GI50 (SF-295) was 39.9 µM (inactive) and the GI50 (NCI-H522) was > 100 µM (inactive). The GI50 (TK-10) was 36.2 µM (inactive), the GI50 (HCT-116) was 17.5 µM (inactive) and the GI50 (DU-145) was 25.8 µM (inactive). For the same molecule, the GI50 (OVCAR-4) was 24.9 µM (inactive), the GI50 (HL-60) was 27 µM (inactive) and the GI50 (SNB-19) was 44.1 µM (inactive). The GI50 (HCT-15) was 23.3 µM, the GI50 (HT-29) was 31.9 µM (inactive) and the GI50 (SN12C) was 25.8 µM (inactive). The GI50 (MDA-N) was 23 µM (inactive) and the GI50 (HCC 2998) was 95.9 µM (inactive).

Source: ChEMBL document CHEMBL1201862, “PubChem BioAssay data set” (2004)
